As usually defined, the melting point is the temperature, or range, at which the solid turns liquid.

In the case of `CCCCCC(CC(=O)Nc1cc(C(N)=O)ccc1C(C)(C)C)c1ccc(OCCOC)cc1OC` (centres undefined), the melting point was in the range of 134 to 135 °C.
`COc1ccc2cc(CN3CCC(NC(=O)NC(=O)c4ccccc4)CC3)ccc2c1`: the melting point was in the range of 243 to 244 °C.
`O=C(CCCCCNC(=O)c1ccc2ccccc2c1)NO` showed a melting point of 96 to 98 °C.
Compound `O=C1C=C(c2ccc(O)cc2)C(=O)N1` had a melting point of 158 to 162 °C.
`COc1cc2c(cc1OC)C(CNC(=O)N(C)O)CC2` (centres undefined) came in with a melting point of 120 to 121 °C.
On to `CCCC(=O)Nc1cccc2c1C(=O)c1c-2n[nH]c1-c1ccc(OC)cc1`, for which the melting point was found to be 282 °C.
Regarding `O=C(Cc1c[nH]c2ccccc12)Nc1ccc(-n2nc(C3CC3)cc2C2CC2)cc1`, the melting point fell in the range of 158 to 164 °C.
As for `COC(=O)[C@@H]1CCCC[C@@H]1C(=O)N(C)CC(=O)NO` (relative stereo), the figure is 101 to 102 °C.
Turning to `CC(C)(C)Cn1c(=O)c(C#N)c(N2CCN(C(=O)c3cccs3)CC2)c2cccnc21`, the melting point worked out at 232 °C.
Consider `COC(=O)c1ccccc1Oc1ccc([N+](=O)[O-])cc1`, for which the melting point worked out at 74 °C.
The compound `CCOC(=O)c1cn(C2CC2)c2cc(Br)c(F)cc2c1=O` had a melting point of 251 to 253 °C.
`O=[N+]([O-])c1ccc(-n2nc(CO)c3c2CCCC3)cc1`: the melting point is 219 °C.
With `COc1ccc(-c2c(Cl)nc(C)nc2NS(=O)(=O)c2ccc(OC)cc2)cc1`, the melting point lay within 152 to 154 °C.
As for `CC(C)(C)C(=O)Oc1nc(-c2ccccc2)sc1-c1ccccc1`, the figure is 134 to 136 °C; as for `Cn1cncc1C(N)(c1ccc(Cl)cc1)c1ccc2c(c1)c(-c1nc(-c3ccccc3)cs1)cc(=O)n2C` (centres undefined), 237 °C.
`CC12CC(N3CCC(=O)CC3)C(O)CC1CCC1C2CCC2(C)C(O)C(N3CCCCC3)CC12` (centres undefined): the melting point is 205 to 206 °C.
With `COc1ccc(C(C#N)Nc2ccc(S(C)(=O)=O)cc2)cc1` (centres undefined), the melting point was in the range of 131 to 132 °C.
As for `NC(=O)NNCc1ccc(OCCc2coc(-c3ccccc3)n2)cc1`, the figure is 192 to 196 °C; as for `Cc1nc(N2CCN(Cc3ccc(OC(F)(F)F)cc3)C2=O)sc1C(=O)NCCc1ccccc1`, 184 to 185 °C.
`CCCCc1nc2c(N)nc3ccccc3c2s1` gave a melting point of 149 to 151 °C.
In turn, `CC(=C\c1ccccc1)/C=C(\C)C(=O)NCCCCCC(=O)NO` returned a melting point of 120 to 122 °C.
As for `CC(=CN1C(=O)c2ccccc2C1=O)c1ccco1`, the figure is 136 to 137 °C; as for `Cc1c(C)c2c(c(C)c1O)CCC(C)(C#Cc1cccc(C(F)(F)F)c1)O2` (centres undefined), 81 to 83 °C; as for `CN1c2ccc(Cl)cc2C(c2ccccc2)=Nc2cccnc21`, 153 to 156 °C.
The compound `O=C(c1ccc2ccccc2c1)n1c2cc(O)c(O)cc2c2ccc(O)c(O)c21` came in with a melting point of 266 to 270 °C.
`CC(=O)OC[C@H]1OCC(=O)[C@@H](OC(C)=O)[C@@H]1OC(C)=O` yielded a melting point of 86 to 88 °C.
`CCNC(=O)c1ccc(CN2CCN(c3ccncc3)CC2)cc1` registered a melting point of 213 to 215 °C.
In the case of `CN1C(O)=C(C(=O)Nc2ccc(Cl)cc2)c2sccc2S1(=O)=O`, the melting point came to 172 °C.
Compound `C#CCN(C)c1nc(C(=O)N(C)C)cs1` yielded a melting point of 99 to 100 °C.
Consider `O=C(c1cc2cc(OCCNC[C@H](O)COc3ccccc3)ccc2[nH]1)N1CCCC1`, for which the melting point is 110 to 115 °C.
For `Cc1ccc(-c2ccccc2)cc1Cn1c(C(F)F)nn(C)c1=O`, the melting point turned out to be 72.7 °C.
The compound `CC(=O)NC(CSC(=O)c1ccccc1OC(C)=O)C(=O)O` (centres undefined) displayed a melting point of 120 to 122 °C.
On to `COC(=O)CCCCCCCCCCCO`, for which the melting point was 33.5 to 35 °C.
`CCOC(=O)c1coc(-c2ccc(CCl)cc2)n1` yielded a melting point of 115 to 117 °C.
Regarding `Cc1cc(-c2ccc(S(C)(=O)=O)cc2)n(-c2ccc(-c3ccoc3)cc2)c1C`, the melting point lay within 215 to 219 °C.
On to `O=C(O)c1cc2cc(Cl)ccc2nc1NC(COCc1ccccc1)C(=O)Nc1ccccc1` (centres undefined), for which the melting point is 150 to 151 °C.
Turning to `CC(=O)S[C@H]1CO[C@@H](c2ccccc2)OC1`, the melting point is 94 to 95 °C.
As for `CC1(C)NC(=O)OC12CCNCC2`, the figure is 38 to 40 °C; as for `C=CCOC(=O)/C(=N\O)c1csc(N)n1`, 184 to 185 °C; as for `CCCOc1ccccc1-c1nc2nc(N(CC)CC)ncc2c(=O)[nH]1`, 116 to 117 °C.
As for `CCCc1nc2c(c(C)c(C)n3nnnc23)n1CC(C)(C)N`, the figure is 154 to 156 °C.
For the compound `CC[C@]1(C(=O)NCC=Cc2ccccc2F)[C@H](C)C1(Cl)Cl` (relative stereo), the melting point is 103 to 105 °C.
`CON=C(C(=O)O)c1nc(NC=O)sc1Cl` showed a melting point of 175 to 177 °C.
In turn, `CC1CN(c2c(F)cc3c(=O)c(C(=O)O)cn(C(C)C)c3c2F)CCN1` (centres undefined) gave a melting point of 217 to 218 °C.
`Cc1ccc(Cc2cnc(Cl)nc2OC(C)C)cn1`: the melting point fell in the range of 38 to 42 °C.
Regarding `NNc1ncccc1-c1cccnc1`, the melting point is 104 to 107 °C.
For the compound `Cc1cc(C)c(Nc2nc(C)ncc2S(=O)(=O)c2ccc(-c3ccccn3)cc2)c(C)c1`, the melting point lay in the range of 201 to 203 °C.
Compound `CCOC(=O)c1scnc1Cl` had a melting point of 43 to 45 °C.
As for `CC(=O)NCC1CN=C(c2ccccc2F)c2cc(Cl)ccc2N1C(C)=O` (centres undefined), the figure is 213 to 215 °C.
Compound `Cc1nn2c(=O)c(CCN3CCC(n4ccc5cc(F)ccc54)CC3)c(C)nc2s1` registered a melting point of 194 °C.
As for `CS(=O)(=O)c1ccc(-c2[nH]c(C(O)(C(F)(F)F)C(F)(F)F)nc2-c2ccccc2)cc1`, the figure is 223 to 225 °C.
In turn, `Cc1ccc(C2(O)CCC(=O)N2C)cc1S(N)(=O)=O` (centres undefined) gave a melting point of 124 °C.
On to `CN(C)C=C1CN=C(c2ccccc2)c2cc(Cl)ccc2C1=O`, for which the melting point lay in the range of 179 to 180 °C.
In the case of `CNc1c(F)cc2c(=O)c(C(=O)O)cn(-c3nc(N)c(F)cc3F)c2c1Cl`, the melting point was in the range of 251 to 253 °C.
`CC(C)(C)OC(=O)CN(C(=O)OC(C)(C)C)[C@H](CC1CCCCC1)C(=O)N1CCC[C@H]1C(=O)NC1CCc2nc(N)sc2C1` (some centres undefined) registered a melting point of 95 to 101 °C.
In turn, `CC(C)(C)c1cc(C(=O)c2ccn(Cc3ccccc3)c2)cc(C(C)(C)C)c1O` yielded a melting point of 123 to 124 °C.
As for `O=c1[nH]nc(C(F)(F)F)s1`, the figure is 54 to 55 °C; as for `Cc1ccc(Cl)c(Nc2ccccc2-c2nnc(S(C)=O)s2)c1Cl` (centres undefined), 158 to 160 °C; as for `CC1(C)OC(c2ccc(S(C)(=O)=O)cc2)=C(c2ccc3c(c2)OCO3)C1=O`, 178 to 179 °C.
As to `OCc1nn(-c2ccccc2)c2c1CCCC2`, the melting point lay in the range of 75 to 77 °C.
`O=C(NCc1ccc2c(c1)OCO2)c1ccc2[nH]c(=O)n(Cc3ccc(Cl)cc3)c(=O)c2c1` came in with a melting point of 290 °C.
As for `CCCCCCCCNC(=O)n1cc(F)c(=O)[nH]c1=O`, the figure is 98 to 100 °C; as for `O=[N+]([O-])c1ccc(O)cc1SCCO`, 161 °C; as for `CCOc1cc2ncc(C#N)c(Nc3ccc4cc[nH]c4c3)c2cc1OCC`, 128 to 130 °C.
In turn, `Oc1ccc2c(c1)OCC(c1ccc(F)cc1)C2c1ccc(OCCN2CCCCC2)cc1` (centres undefined) registered a melting point of 146 to 147 °C.
In the case of `COc1cc(C=O)cc(OC)c1OC1OC(COC(C)=O)C(OC(C)=O)C(OC(C)=O)C1NC(C)=O` (centres undefined), the melting point was 222 to 225 °C.
Turning to `Cc1ccc(Oc2cccc(CC(=O)O)c2N)cc1C`, the melting point lay within 90 to 92 °C.
In turn, `COC(=O)c1ncsc1S(=O)(=O)Cl` came in with a melting point of 94 to 97.5 °C.
As for `CON=C(C)CN1C(=O)c2ccccc2C1=O`, the figure is 114 to 131 °C; as for `COc1ccc(CNS(=O)(=O)CCCCl)cc1`, 78 to 80 °C; as for `O=C(CCCCCN1CCN(c2cccc3c2OCCCO3)CC1)N1Cc2ccccc2C1`, 131 °C.
As to `CCCS(=O)(=O)c1ccccc1S(=O)(=O)NC(=O)Nc1nc(Cl)cc(OCC)n1`, the melting point was 220 to 222 °C.
The compound `Cc1nc(N(C)C=O)sc1C(=O)CBr` had a melting point of 80 to 82 °C.
Compound `Cc1nc(-n2cnn(Cc3ccc(F)cc3)c2=O)sc1C(=O)NCc1nccs1` showed a melting point of 189 to 190 °C.
`O=C(NN1CCOCC1)OCCOc1ccc(OCCOC(=O)NN2CCOCC2)cc1` came in with a melting point of 219 to 221 °C.
As for `COc1cc(C=CCN2CCc3nc(N)sc3CC2)cc(OC)c1`, the figure is 114 to 119 °C; as for `Cc1oc(-c2ccccc2)nc1CCOc1ccc(COc2ncccc2CC(=O)O)cc1`, 134 to 135 °C.
The compound `O=Cc1ccc(C(=O)Nc2ccc(OCC(F)(F)C(F)F)cc2)cc1` registered a melting point of 152 °C.
In the case of `Cc1sc2nc(SCCCN3CCN(c4nc5ccccc5s4)CC3)n(N)c(=O)c2c1C`, the melting point is 200 to 201 °C.
`CC(=O)NCC1CCN(CCOc2ccccc2)CC1` gave a melting point of 79 to 80 °C.
Take `COc1ccc(C2CCN(C(=O)CCC(=O)c3ccc4c(c3)CCNCC4)CC2)cc1`: the melting point fell in the range of 99 to 100 °C.
`N#Cc1ncn2c(C(F)(F)F)cc(-c3ccccn3)nc12`: the melting point stood at 205 °C.
`CCOCc1nc2c(NC(=O)c3ccccc3)nc3ccccc3c2n1CC(C)(C)NS(C)(=O)=O` gave a melting point of 80 to 83 °C.
In turn, `N=C1N(Cc2ccc(Cl)nc2)CCN1[N+](=O)[O-]` gave a melting point of 81 °C.
As for `Cc1oc(-c2cc3ccccc3s2)nc1COc1ccc(CCCCn2cncn2)cc1`, the figure is 131 to 132 °C.
As for `CCOC(=O)[C@@H](CCC(=O)N1c2ccccc2C[C@H]1C(=O)OCC)NC(=O)[C@@H](N)CCCCNSc1ncccc1[N+](=O)[O-]`, the figure is 95 to 102 °C; as for `CCOC(=O)c1cnn(-c2ccc(OCC(C)(C)COC(=O)c3ccccc3)c(C#N)c2)c1`, 112 to 114 °C.
As for `N#Cc1ncccc1Oc1ccccc1`, the figure is 79 to 82 °C.
As for `CCCCCCCCCCCCCCOc1ccc(CC(=O)Nc2cccc(-c3nccs3)c2)cc1`, the melting point fell in the range of 128 to 131 °C.
